Key:
[1] = tested on: human peripheral blood monocytes; assay: LPS/cytokine assay in human peripheral blood mononuclear cells; assay type: cell-based; details: 30 minutes pre-incubation, LPS 100 ηg/ml, 6 hours; ELISA
Procedure: Human Peripheral Blood Mononuclear Cells (cat #7200) were procured for the assay (Seracare Diagnostics, Gaithersburg, Md., U.S.A.). Frozen vials were thawed and washed once with Phosphate Buffered Saline (Thermo Fisher Scientific, Inc., Waltham, Mass., U.S.A.). Cells were then counted and plated into 96-well dishes. […] Plates were analyzed with a Spectramax® Reader using Softmax Pro software (Spectramax, Inc., Sunnyvale, Calif., U.S.A.).

serum cytokines = assay: Continuous infusion of ghrelin analogues in 5/6 nephrectomized rats: serum cytokines; assay type: in vivo; details: 150 ηmol/kg/day s.c. osmotic mini-pump; for change of serum IL-10 relative to the nephrectomy/saline group: CKD rats; for serum GM-CSF / serum IL-1-α (second listing) / serum IL-1α / serum IL-6 / serum IL-10 (anti-inflammatory cytokine) / serum TNF-α: nephrectomized rats
Procedure: (§1) F344/NTacfBR male rats (Taconic Farms, Inc., Germantown, N.Y., U.S.A.) were housed two to a cage, fed rat chow (diet 5001, Purina Mills, Inc., St. Louis, Mo., U.S.A.) and acclimated for at least three days prior to use.
(§2) A 5/6 nephrectomy was performed in two stages. The test subjects were initially anesthetized with standard rat cocktail and placed prone in a clean environment. A 1 cm posterior incision was made on the right flank through which the right kidney was located. For animals undergoing nephrectomy, the renal capsule was removed and the upper and lower third of the kidney was transected and the resultant wound cauterized leaving the middle third of the kidney with the renal artery and vein intact. For animals receiving a sham operation, the renal capsule was opened up and cauterized to simulate the manipulations performed in the nephrectomy. The external surgical wounds were closed by suturing and the test subject was isolated to facilitate recovery.
(§3) Nine days following the initial surgery, the animals were again anesthetized and placed prone in the surgical area. A 1 cm incision was made on the left side of the subject's abdomen and the left kidney was isolated. For animals undergoing nephrectomy, the renal capsule was removed and the vasculature was tied off by suturing. The vascular bundle was then transected distal to the suture and the entire kidney removed. Any residual bleeding was cauterized. For animals in the sham group, the renal capsule was removed and cauterized. The external surgical wounds were closed with suture. While still under anesthesia, osmotic mini-pumps were placed in all test subjects. A 1 cm incision was made in the midline overlying the posterior thorax at the level of the forelimbs and the underlying sub-cutaneous space was opened via blunt dissection. The osmotic minipumps were placed inside and the incision and closed with suture. This procedure marked the first day (“Day 0”) of treatment.
(§4) Each compound was dissolved in vehicle solution (2% inactivated rat serum, 5% Tween-80) sonicated and filtered through a […] syringe filter.
Rat serum samples were collected and tested for cytokines IL-1α, IL-1β, IL-2, IL-4, IL-6, IL-10, GM-CSF, INF-γ and TNF-α using a Bio-Plex rat cytokine 9-Plex assay (Bio-Rad Laboratories, Hercules, Calif., U.S.A.) according to the manufacturer's instructions for use thereof.
The pre-mixed standards were reconstituted in 0.5 ml of a Bio-Plex […] serum standard diluent generating a stock concentration of 50,000 pg/ml for each cytokine. The standard stock was serially diluted in the Bio-Plex rat serum standard diluent to generate eight points for a standard curve. The assay was performed in a 96 well filtration plate supplied with the assay kit. Pre-mixed beads (50 μl) coated with target capture antibodies were transferred to each well of the filtration plate and washed twice with Bio-Plex wash buffer. The samples were diluted (1:4) in the Bio-Plex serum sample diluent. Pre-mixed standards or diluted samples (50 μl) were added to each well containing washed beads. The plate was shaken and incubated at room temperature for thirty minutes at a low speed (300 rpm). After incubation and washing, pre-mixed biotin conjugated detection antibodies were added to each of the wells. The plate was thereafter incubated for approximately thirty minutes and shaken at a low speed (300 rpm). After incubation and washing, strepavidin-PE were added to each well. The incubation was terminated after shaking for ten minutes at room temperature. After washing, the beads were re-suspended in 125 μl of Bio-Plex assay buffer. Beads were read on the Bio-Plex suspension array system (Bio-Rad Laboratories, Hercules, Calif., U.S.A.). The accumulated data was analyzed using Bio-Plex Manager software version 3.0 with 5 PL curve fitting.
One-way ANOVA was used to determine differences among the nephrectomy and sham groups using a Bonferoni post-hoc test; P<0.05 was considered significant. […]

[2] = tested on: IL-1β and IL-1RI gene expression in the hypothalamus and brainstem; assay: Continuous infusion in 5/6 nephrectomized rats: central inflammatory transcripts; assay type: in vivo; details: Sham/Saline 1.00
Procedure: as §1, §2, §3, §4
After sacrifice, blood, brain, stomach and muscle were collected. A subset of the rats had their hypothalami dissected out, preserved in RNAlater solution (Applied Biosystems, Inc., Foster City, Calif., U.S.A.) and stored at −70° C. for extraction of RNA and RT-PCR analysis. A subset of the rats had their hypothalami and brainstems dissected out, preserved in RNAlater solution and stored at −70° C. for extraction of RNA and RT-PCR analysis. Hypothalamic blocks were dissected by making coronal transections at the optic chiasm and at the intersection between the hypothalamus and the mammalary bodies and sagital transections along the optic tracks. Cortex was then removed at the level of the corpus callosom. Brainstem blocks were dissected by removal of the cerebellum and coronal transections at the rostral border of the pons and at the spinal cord.
One-way ANOVA was used to determine differences among the nephrectomy and sham groups using a Bonferoni post-hoc test; P<0.05 was considered significant. In the case of the serum cytokines, each individual set of data was considered by ANOVA and the composite of all of the cytokine levels were considered together after normalizing all levels to the Sham/Saline group using a mixed model analysis for a trend for cytokines values among the different groups. This model takes into account the propensity of some animals to have higher or lower cytokine levels across all of the different cytokines and accounts for within-sample variability.

TNBS-induced colitis [3] = assay: Established colitis model (TNBS); assay type: in vivo, mice; details: single 50 nM dose ip on days 6, 7 and 8 post-TNBS
Procedure: In an effort to examine the ability of the novel ligands of native ghrelin of the instant application to reduce inflammation of the colon in vivo, inflammation was induced in a mouse model and thereafter said subjects were treated with a novel ghrelin analogue of the instant application.
(§5) Male SJL mice (Charles River Laboratories, Wilmington, Mass., U.S.A.) approximately 5 to 6 weeks of age were employed. The guidelines proposed by the committee for the Care of Laboratory Animal Resources Commission of Life Sciences-National Research Council were followed to minimize animal pain and distress. Each animal received rodent laboratory chow and ad libitum water.
(§6) Acute colon inflammation was induced in the test subjects by administering 3 mg of […] (Thermo Scientific Pierce Protein Research Products, Waltham, Mass., U.S.A.) (TNBS) in 50% ethanol via a catheter inserted intrarectally from the test subject's anus on the day the study commenced and then again approximately 7 days thereafter. Control mice received the same volume of 50% ethanol without the TNBS.
Body weight for all test subjects was measured every day. Macroscopic evaluation of colon inflammation was performed on the 9th day after inducing TNBS-induced colitis.
The colons of the sacrificed test subjects were removed and measured.

TNBS-induced colitis [4] = assay: Acute colon inflammation model (TNBS-induced colitis); assay type: in vivo, mice
Procedure: In an effort to examine the ability of the novel ligands of native ghrelin of the instant application to ameliorate inflammation of the colon in vivo, inflammation was induced in a mouse model and thereafter said subjects were treated with a novel ghrelin analogue of the instant application.
as §5
as §6, with “anus.” for “anus on the day the study commenced and then again approximately 7 days thereafter.”, “TNBS. […] Five mice from both groups were sacrificed 4 days post-TNBS-induced challenge.” for “TNBS.”
Body weight for all test subjects was measured every day. FIG. 27 Serum samples were tested for interferon-gamma by ELISA (Millipore, Inc., Billerica, Mass., U.S.A.). […]
The colons of the sacrificed test subjects at day 4 and day 10 were removed and measured.

LPS-induced endotoxemia = assay: In vivo LPS/cytokine assay in a mouse model; design: species or system mice; details: 5 and 10 nmoles i.p. 10 minutes prior to 5 μg LPS i.p.; serum 2 hours post-LPS
Procedure: In an effort to examine the ability of the novel ligands of native ghrelin of the instant application to modulate inflammatory cytokine expression in vivo, mice were treated with ghrelin prior to an LPS administration.
Male 22-24 g CD1 mice (Charles River Laboratories, Wilmington, Mass., U.S.A.) were used.
Mice were sacrificed 2 hours post-LPS challenge and serum was collected via heart puncture and stored −80° C.
Mouse serum was used with Lincoplex™ custom 7-plex immunoassay for TNF-α (FIG. 3), IL-1β, IL-6 (FIG. 6), IL-10 and GM-CSF (Linco Research, Inc., St. Charles, Mo., U.S.A.). The assay was performed according to the manufacturer's instructions. Plates were run on a Luminex® 200 analyzer (Luminex, Austin, Tex., U.S.A.) using Masterplex CT™ v1.0 software for acquisition and Masterplex™ QT v2.5 software for analysis (MiraiBio, Hitachi Software Engineering Co., Yokohama, JP).

3T3-L1 adipocytes = assay: In vitro cytokine lipolysis assay in 3T3-L1 adipocytes (TNF-α induced lipolysis, glycerol content); assay type: cell-based; details: 1, 10 or 100 ηM, 10 minutes pre-treatment; 20 ηg/ml recombinant murine TNF-α, 24 hours
Procedure: The claimed compounds were tested for their ability to ameliorate cytokine levels. […] In addition, it has been determined that extracellular glucose is required for TNF-α mediated adipocyte lipolysis (Green, A. et al., Diabetes, (2004), 53 (1):74-81). Glycerol, generated by triglyceride breakdown, is released into the extracellular space through aquaporin adipose. Extracellular glycerol is easily assayed by incubation with glycerol kinase (to produce glycerol phosphate), glycerol phosphate oxidase (to produce H2O2), and horseradish peroxidase in the presence of a calorimetric substrate. As such, free glycerol can be assayed as a marker for adipolysis.
In the assay protocol, 3T3-L1 adipocytes were permeabilized and preincubated with the ghrelin analogues of the present invention. In particular, 3T3-L1 preadipocytes were obtained from 3T3-L1 fibroblasts (ATCC Deposit No. CL-173 described in U.S. Pat. No. 4,003,789). […]
The glycerol content was determined using an Adipolysis Assay Kit (Millipore Corporation, Temecula, Calif., U.S.A.).

[5] = tested on: mouse peritoneal macrophages; assay: LPS-stimulated cytokine secretion from mouse peritoneal macrophages; assay type: cell-based; details: in vitro
Procedure: Mouse peritoneal macrophages were elicited by intraperitoneal (i. p.) injection of 2 ml of 4% Brewer's thioglycollate medium (Difco, Detroit, Mich., U.S.A.) into male BALB/c mice aged 6 to 10 weeks (Ace Animals, Inc., Boyertown, Pa., U.S.A.). Peritoneal exudate cells were obtained 72 hours after injection by peritoneal lavage with ice-cold RPMI 1640 medium (Sigma-Aldrich, St. Louis, Mo., U.S.A.). Peritoneal exudate cells containing lymphocytes and macrophages were washed twice and re-suspended in ice-cold RPMI 1640 medium supplemented with 2% heat-inactivated fetal calf serum “FCS” (Life Technologies, Rockville, Md., U.S.A.) and were seeded in flat-bottomed 96-well microtiter plates (Corning Glass, Corning, N.Y., U.S.A.) at 8×10^4 cells per well in a final volume 200 μl. The cells were incubated at 37° C. for 2 hours to adhere.

Row | Substance | LPS-stimulated IL-6 secretion [1] | LPS-stimulated IL-10 secretion [1] | LPS-stimulated TNF-α secretion [1] | change of serum IL-10 relative to the nephrectomy/saline group (serum cytokines) | serum GM-CSF (serum cytokines) | serum IL-1-α (second listing) (serum cytokines) | serum IL-1α (serum cytokines) | serum IL-6 (serum cytokines) | serum IL-10 (anti-inflammatory cytokine) (serum cytokines) | serum TNF-α (serum cytokines) | expression of IL1-RI in the brainstem [2] | transcript levels of IL-1R in the hypothalamus [2] | transcript levels of IL-1β in the brainstem [2] | transcript levels of IL-1β in the hypothalamus [2] | other results
1 | (Aib^2, Glu^3(NH-hexyl))hGhrelin(1-28)-NH2 (GXEFLSPEHQRVQQRKESKKPPAKLQPR; Aib2, Glu3 NH-hexyl, C-terminal amide; Ghrelin Analogue) [Example #13] | inhibition | inhibition | inhibition | significant increase | 7.01+/−2.05 | 57.37+/−7.48 | 3.50+/−2.49 | 83.65+/−21.71 | 594.83+/−55.22 | 47.04+/−3.36 | – | – | – | – | –
2 | H-Gly-Ser-Ser-Phe-Leu-Ser-Pro-Glu-His-Gln-Arg-Val-Gln-Gln-Arg-Lys-Glu-Ser-Lys-Lys-Pro-Pro-Ala-Lys-Leu-Gln-Pro-Arg-NH2 [hGhrelin(1-28)-NH2, reference compound] | – | – | – | – | 5.24+/−1.93 | 49.52+/−10.03 | 3.92+/−2.39 | 52.42+/−18.68 | 242.41+/−27.51 | 34.71+/−14.00 | 0.72+/−0.12 | 0.78+/−0.26 | 1.27+/−0.60 | 0.98+/−0.46 | –
3 | H-Inp-D-Bal-D-Trp-Phe-Apc-NH2 [Example #27] | inhibition | inhibition | inhibition | significant increase | 8.01+/−2.83 | 46.58+/−9.87 | 3.84+/−1.62 | 98.41+/−36.66 | 419.26+/−38.71 | 45.81+/−6.23 | 0.75+/−0.18 | 0.77+/−0.17 | 1.34+/−0.46 | 1.54+/−0.42 | colitis in vivo (TNBS-induced colitis [3]): effectively inhibited; colon size (length) of sacrificed test subjects (TNBS-induced colitis [3]): smaller colons; IFN-γ production in vivo (TNBS-induced colitis [4]; 5 nmolar and 50 nmolar dose ip approximately 12 hours after TNBS, serum ELISA, day 4): inhibited; colon size (length) of sacrificed test subjects (TNBS-induced colitis [4]; day 4 and day 10, 5 nM or 50 nM dose ip): smaller colons; anti-inflammatory effect on LPS-induced endotoxemia (TNF-α, IL-6, IL-10 and IL-13 expression in vivo) (LPS-induced endotoxemia): inhibition of TNF-α, IL-6, IL-10 and IL-13 expression; lipolysis in the adipocytes induced by TNF-α (glycerol content) (3T3-L1 adipocytes): significantly inhibited; LPS-stimulated IL-6 secretion [5]: inhibition; LPS-stimulated TNF-α secretion [5]: inhibition
